Patent publication US12545637B2, “Extrahepatic targeted cationic lipid compound with high efficiency and low toxicity and its composition” (BEIJING YOUCARE KECHUANG PHARMACEUTICAL TECHNOLOGY CO., LTD., priority 2023, dated 2026)
Values joined by “and” are separate entries in the source; they are usually repeats but may differ in a detail not shown here. Equal entries are not always repeated.

What was measured:
[1] = Detection of encapsulation efficiency, drug loading concentration and total RNA concentration (RiboGreen); assay type: physicochemical
Procedure, shortened: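 LNP samples were diluted in 1×TE to approximately […], then mixed with 1×TE and 0.1% Triton X-100 buffers. After 10 minutes at 37 °C, RiboGreen (1:200) was added and fluorescence read against an mRNA standard, giving encapsulation efficiency, drug loading concentration and total RNA concentration.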

293T cells [2] = test: Fluorescent detection of Fluc-mRNA (cell transfection efficiency of LNP formulations); assay type: cell-based
female BALB/C mice = test: In vivo imaging in mice of Fluc-mRNA LNP formulations (mRNA expression and duration)
Procedure, shortened: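 Female BALB/C mice (4-6 weeks, 17-19 g) received LNP carrying […] Fluc-mRNA intramuscularly. At 6h, 24 h, 48h and 7d, fluorescent imaging substrate was given intraperitoneally and after 5 minutes average radiance, as a measure of expressed protein, was imaged on an IVIS Spectrum system.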

293T cells [3] = test: Fluorescent detection of Fluc-mRNA (cell transfection efficiency of LNP formulations); assay type: cell-based; remark: listed apart in the source
[4] = LNP formulation prepared from the cationic lipid

Compound: CCCCCCCCCCCOC(=O)CCCN(CCO)CCN(CCO)CCCCCC(=O)OC(CCCCCCCC)CCCCCCCC [YK-407]
- Drug loading concentration [1, 4]: 35.67 µg/mL
- Encapsulation efficiency [1, 4]: 85.2%
- Total RNA concentration [1, 4]: 40.77 µg/mL
- encapsulation efficiency higher than ALC-0315 ([1]; difference vs ALC-0315): 21.9%
- encapsulation efficiency higher than HIMA ([1]; difference vs HIMA (HHMA)): 25.0%
- encapsulation efficiency higher than SM-102 ([1]; difference vs SM-102): 22.3%
- encapsulation efficiency higher than YK-009 ([1]; difference vs YK-009): 21.8%
- encapsulation efficiency higher than compound 21 ([1]; difference vs compound 21): 27.2%
- encapsulation efficiency higher than compound 23 ([1]; difference vs compound 23): 29.0%
- drug loading concentration, times that of ALC-0315 ([1]; ratio vs ALC-0315): 1.33
- total RNA concentration, times that of ALC-0315 ([1]; ratio vs ALC-0315): 1.08
- drug loading concentration, times that of HIMA ([1]; ratio vs HIMA (HHMA)): 1.09
- total RNA concentration, times that of HIMA ([1]; ratio vs HIMA (HHMA)): 1.12
- drug loading concentration, times that of SM-102 ([1]; ratio vs SM-102): 1.34
- total RNA concentration, times that of SM-102 ([1]; ratio vs SM-102): 1.13
- drug loading concentration, times that of YK-009 ([1]; ratio vs YK-009): 1.30
- total RNA concentration, times that of YK-009 ([1]; ratio vs YK-009): 1.06
- drug loading concentration, times that of compound 21 ([1]; ratio vs compound 21): 1.62
- total RNA concentration, times that of compound 21 ([1]; ratio vs compound 21): 1.41
- drug loading concentration, times that of compound 23 ([1]; ratio vs compound 23): 1.78
- total RNA concentration, times that of compound 23 ([1]; ratio vs compound 23): 1.31
- Relative light unit (RLU) (293T cells [2]; LNP with 0.3 μg Fluc-mRNA, 96-well plate, 24 hours): 20385506 RLU
- cell transfection efficiency, times that of YK-415 (293T cells [2]; ratio vs YK-415): 68.40
- cell transfection efficiency, times that of YK-417 (293T cells [2]; ratio vs YK-417): 173.81 and 170
- cell transfection efficiency, times that of YK-418 (293T cells [2]; ratio vs YK-418): 183.24 and 180
- cell transfection efficiency, times that of YK-424 (293T cells [2]; ratio vs YK-424): 7.07
- RLU value, times that of compound 21 (293T cells [2]; ratio vs compound 21): 13.49 and 13
- RLU value, times that of compound 23 (293T cells [2]; ratio vs compound 23): 14.53 and 15
- average radiation intensity, times that of ALC-0315 (female BALB/C mice; 6 h): 4.76
- average radiation intensity, times that of HHMA (female BALB/C mice; 6 h): 6.05
- average radiation intensity, times that of SM-102 (female BALB/C mice; 6 h): 5.79
- average radiation intensity, times that of compound 21 (female BALB/C mice; 6 h): 6.66
- average radiation intensity, times that of compound 23 (female BALB/C mice; 6 h): 6.88
- expression amount in mice, times that of YK-415 (female BALB/C mice; 6 h): 33.96
- expression amount in mice, times that of YK-417 (female BALB/C mice; 6 h): 66.16
- average radiation intensity, times that of ALC-0315 (female BALB/C mice; 24 h): 10.62
- average radiation intensity, times that of HHMA (female BALB/C mice; 24 h): 16.80
- average radiation intensity, times that of SM-102 (female BALB/C mice; 24 h): 16.34
- average radiation intensity, times that of compound 21 (female BALB/C mice; 24 h): 18.15
- average radiation intensity, times that of compound 23 (female BALB/C mice; 24 h): 19.97
- expression amount in mice, times that of YK-415 (female BALB/C mice; 24 h): 31.25
- expression amount in mice, times that of YK-417 (female BALB/C mice; 24 h): 100.86
- mRNA expression in mice, times that of YK-411 (female BALB/C mice; 24 h): 996.97 and 1000
- average radiation intensity, times that of ALC-0315 (female BALB/C mice; 48 h): 22 and 22.06
- average radiation intensity, times that of HHMA (female BALB/C mice; 48 h): 27 and 26.55
- average radiation intensity, times that of SM-102 (female BALB/C mice; 48 h): 27 and 26.93
- average radiation intensity, times that of compound 21 (female BALB/C mice; 48 h): 28 and 28.07
- average radiation intensity, times that of compound 23 (female BALB/C mice; 48 h): 27 and 26.89
- expression amount in mice, times that of YK-415 (female BALB/C mice; 48 h): 56.07
- expression amount in mice, times that of YK-417 (female BALB/C mice; 48 h): 125.66 and 120
- mRNA expression in mice, times that of YK-411 (female BALB/C mice; 48 h): 907.99
- average radiation intensity, times that of ALC-0315 (female BALB/C mice; 7 d): 6.90
- average radiation intensity, times that of HHMA (female BALB/C mice; 7 d): 8.13
- average radiation intensity, times that of SM-102 (female BALB/C mice; 7 d): 7.20
- average radiation intensity, times that of compound 21 (female BALB/C mice; 7 d): 7.59
- average radiation intensity, times that of compound 23 (female BALB/C mice; 7 d): 7.93
- expression amount in mice, times that of YK-415 (female BALB/C mice; 7 d): 11.98
- expression amount in mice, times that of YK-417 (female BALB/C mice; 7 d): 21.20 and 20
- mRNA expression in mice, times that of YK-411 (female BALB/C mice; 7 d): 100.85 and 100
- average radiation intensity, 6 h (female BALB/C mice; Fluc-mRNA LNP intramuscular, 6 h after administration): 4001500
- average radiation intensity, 24 h (female BALB/C mice; Fluc-mRNA LNP intramuscular, 24 h after administration): 2015870
- average radiation intensity, 48 h (female BALB/C mice; Fluc-mRNA LNP intramuscular, 48 h after administration): 885288
- average radiation intensity, 7 d (female BALB/C mice; Fluc-mRNA LNP intramuscular, 7 d after administration): 48410
- RLU value, times that of ALC-0315 (293T cells [3]; ratio vs ALC-0315): 9.31
- RLU value, times that of HHMA (293T cells [3]; ratio vs HHMA): 9.81
- RLU value, times that of Lipofectamine 3000 (293T cells [3]; ratio vs Lipofectamine 3000): 16.98
- RLU value, times that of YK-009 (293T cells [3]; ratio vs YK-009): 3.96
- RLU value, times that of YK-405 (293T cells [3]; ratio vs YK-405): 6.37
- RLU value, times that of YK-406 (293T cells [3]; ratio vs YK-406): 260.51
- RLU value, times that of YK-408 (293T cells [3]; ratio vs YK-408): 13.83
- RLU value, times that of YK-409 (293T cells [3]; ratio vs YK-409): 30.43
- RLU value, times that of YK-410 (293T cells [3]; ratio vs YK-410): 49.98
- cell transfection efficiency, times that of YK-412 (293T cells [3]; ratio vs YK-412): 6.05
- cell transfection efficiency, times that of YK-413 (293T cells [3]; ratio vs YK-413): 14.80
- cell transfection efficiency, times that of YK-414 (293T cells [3]; ratio vs YK-414): 45.90
- cell transfection efficiency, times that of YK-416 (293T cells [3]; ratio vs YK-416): 5.13
- cell transfection efficiency, times that of YK-419 (293T cells [3]; ratio vs YK-419): 6.44
- cell transfection efficiency, times that of YK-420 (293T cells [3]; ratio vs YK-420): 5.07
- cell transfection efficiency, times that of YK-421 (293T cells [3]; ratio vs YK-421): 43.69
